pEC50, pIC50, pKd: −log10 of the molar value. Some results are limits rather than exact numbers.

For experiment [1], the target named is T1, Bifunctional 3'-5' exonuclease/ATP-dependent helicase WRN (Homo sapiens, UniProt Q14191). Briefly: Inhibition of N-terminal WRN (unknown origin).
In experiment [2] the target is T1, Bifunctional 3'-5' exonuclease/ATP-dependent helicase WRN. Briefly: Inhibition of N-terminal Hexa-histidine-tagged human recombinant WRN helicase domain (517 to 945 residues) extracted from Baculovirus infected Sf9 cells by fluorescence based analysis.
Experiment [3] is described as follows: Inhibition of HSV-1 helicase DNA dependent ATPase activity assessed as reduction in helicase-primase complex. Also noted: species or system Human alphaherpesvirus 1.
Experiment [4] addresses Eukaryotic initiation factor 4A-I (Homo sapiens, UniProt P60842). Briefly: Inhibition of recombinant full length 6xHis-tagged EIF4A1 (unknown origin) by FP assay.
Experiment [5] concerns the target SWI/SNF-related matrix-associated actin-dependent regulator of chromatin subfamily A member 2 (Homo sapiens, UniProt P51531). Description: Inhibition of SMARCA2 (unknown origin).
The nature of experiment [6]: Inhibition of Coxsackievirus B3 2C protein.
Experiment [7] in a line: Binding affinity to Coxsackievirus B3 2C protein assessed as dissociation constant.

Eukaryotic initiation factor 4A-I, sequence (P60842 whole entry): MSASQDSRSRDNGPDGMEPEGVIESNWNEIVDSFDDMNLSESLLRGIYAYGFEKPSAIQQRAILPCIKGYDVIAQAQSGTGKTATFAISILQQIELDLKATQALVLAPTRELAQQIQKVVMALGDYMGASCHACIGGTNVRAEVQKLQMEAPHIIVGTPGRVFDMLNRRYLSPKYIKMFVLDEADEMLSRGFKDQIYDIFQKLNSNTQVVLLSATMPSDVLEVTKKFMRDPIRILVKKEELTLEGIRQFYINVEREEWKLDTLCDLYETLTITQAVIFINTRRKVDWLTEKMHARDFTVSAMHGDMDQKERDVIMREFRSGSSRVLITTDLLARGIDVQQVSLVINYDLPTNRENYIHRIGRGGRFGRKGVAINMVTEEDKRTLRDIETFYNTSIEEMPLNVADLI
T1 sequence (Q14191 whole entry, the tested form may be a part): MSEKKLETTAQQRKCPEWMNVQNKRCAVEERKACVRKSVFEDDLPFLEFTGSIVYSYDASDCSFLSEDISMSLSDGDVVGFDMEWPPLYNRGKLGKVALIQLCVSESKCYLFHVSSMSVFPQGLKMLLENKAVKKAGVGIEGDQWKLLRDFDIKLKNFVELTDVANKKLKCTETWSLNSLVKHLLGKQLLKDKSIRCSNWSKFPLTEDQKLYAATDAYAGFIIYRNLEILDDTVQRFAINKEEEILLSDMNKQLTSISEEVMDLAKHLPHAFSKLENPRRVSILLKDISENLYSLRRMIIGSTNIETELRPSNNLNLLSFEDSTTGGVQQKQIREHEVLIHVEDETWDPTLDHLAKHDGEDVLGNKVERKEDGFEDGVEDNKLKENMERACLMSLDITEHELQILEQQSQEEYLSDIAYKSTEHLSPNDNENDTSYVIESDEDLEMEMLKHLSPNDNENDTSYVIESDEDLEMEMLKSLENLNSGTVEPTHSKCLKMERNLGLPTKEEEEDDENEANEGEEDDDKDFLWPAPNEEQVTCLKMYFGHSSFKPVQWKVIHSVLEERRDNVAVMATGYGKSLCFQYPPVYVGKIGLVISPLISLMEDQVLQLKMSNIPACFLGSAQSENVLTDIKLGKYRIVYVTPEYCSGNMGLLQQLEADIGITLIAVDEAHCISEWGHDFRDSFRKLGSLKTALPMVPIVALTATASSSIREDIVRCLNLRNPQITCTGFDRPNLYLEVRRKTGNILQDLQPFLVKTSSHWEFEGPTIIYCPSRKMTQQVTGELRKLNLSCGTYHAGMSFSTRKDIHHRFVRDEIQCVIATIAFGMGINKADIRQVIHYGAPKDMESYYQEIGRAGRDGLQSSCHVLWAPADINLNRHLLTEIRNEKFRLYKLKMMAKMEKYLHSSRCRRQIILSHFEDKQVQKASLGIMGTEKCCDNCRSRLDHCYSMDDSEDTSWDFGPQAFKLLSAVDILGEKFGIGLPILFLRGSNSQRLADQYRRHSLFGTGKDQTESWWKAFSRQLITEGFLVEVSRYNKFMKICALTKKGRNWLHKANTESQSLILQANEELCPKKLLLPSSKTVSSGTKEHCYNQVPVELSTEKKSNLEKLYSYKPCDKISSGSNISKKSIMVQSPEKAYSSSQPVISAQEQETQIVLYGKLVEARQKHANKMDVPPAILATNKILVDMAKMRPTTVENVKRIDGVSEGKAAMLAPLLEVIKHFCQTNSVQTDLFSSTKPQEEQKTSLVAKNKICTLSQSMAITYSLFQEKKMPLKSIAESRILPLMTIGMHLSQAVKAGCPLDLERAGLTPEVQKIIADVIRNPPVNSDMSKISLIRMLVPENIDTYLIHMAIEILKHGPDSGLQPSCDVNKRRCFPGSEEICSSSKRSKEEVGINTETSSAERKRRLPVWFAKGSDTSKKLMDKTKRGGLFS
SWI/SNF-related matrix-associated actin-dependent regulator of chromatin subfamily A member 2, sequence (P51531 whole entry): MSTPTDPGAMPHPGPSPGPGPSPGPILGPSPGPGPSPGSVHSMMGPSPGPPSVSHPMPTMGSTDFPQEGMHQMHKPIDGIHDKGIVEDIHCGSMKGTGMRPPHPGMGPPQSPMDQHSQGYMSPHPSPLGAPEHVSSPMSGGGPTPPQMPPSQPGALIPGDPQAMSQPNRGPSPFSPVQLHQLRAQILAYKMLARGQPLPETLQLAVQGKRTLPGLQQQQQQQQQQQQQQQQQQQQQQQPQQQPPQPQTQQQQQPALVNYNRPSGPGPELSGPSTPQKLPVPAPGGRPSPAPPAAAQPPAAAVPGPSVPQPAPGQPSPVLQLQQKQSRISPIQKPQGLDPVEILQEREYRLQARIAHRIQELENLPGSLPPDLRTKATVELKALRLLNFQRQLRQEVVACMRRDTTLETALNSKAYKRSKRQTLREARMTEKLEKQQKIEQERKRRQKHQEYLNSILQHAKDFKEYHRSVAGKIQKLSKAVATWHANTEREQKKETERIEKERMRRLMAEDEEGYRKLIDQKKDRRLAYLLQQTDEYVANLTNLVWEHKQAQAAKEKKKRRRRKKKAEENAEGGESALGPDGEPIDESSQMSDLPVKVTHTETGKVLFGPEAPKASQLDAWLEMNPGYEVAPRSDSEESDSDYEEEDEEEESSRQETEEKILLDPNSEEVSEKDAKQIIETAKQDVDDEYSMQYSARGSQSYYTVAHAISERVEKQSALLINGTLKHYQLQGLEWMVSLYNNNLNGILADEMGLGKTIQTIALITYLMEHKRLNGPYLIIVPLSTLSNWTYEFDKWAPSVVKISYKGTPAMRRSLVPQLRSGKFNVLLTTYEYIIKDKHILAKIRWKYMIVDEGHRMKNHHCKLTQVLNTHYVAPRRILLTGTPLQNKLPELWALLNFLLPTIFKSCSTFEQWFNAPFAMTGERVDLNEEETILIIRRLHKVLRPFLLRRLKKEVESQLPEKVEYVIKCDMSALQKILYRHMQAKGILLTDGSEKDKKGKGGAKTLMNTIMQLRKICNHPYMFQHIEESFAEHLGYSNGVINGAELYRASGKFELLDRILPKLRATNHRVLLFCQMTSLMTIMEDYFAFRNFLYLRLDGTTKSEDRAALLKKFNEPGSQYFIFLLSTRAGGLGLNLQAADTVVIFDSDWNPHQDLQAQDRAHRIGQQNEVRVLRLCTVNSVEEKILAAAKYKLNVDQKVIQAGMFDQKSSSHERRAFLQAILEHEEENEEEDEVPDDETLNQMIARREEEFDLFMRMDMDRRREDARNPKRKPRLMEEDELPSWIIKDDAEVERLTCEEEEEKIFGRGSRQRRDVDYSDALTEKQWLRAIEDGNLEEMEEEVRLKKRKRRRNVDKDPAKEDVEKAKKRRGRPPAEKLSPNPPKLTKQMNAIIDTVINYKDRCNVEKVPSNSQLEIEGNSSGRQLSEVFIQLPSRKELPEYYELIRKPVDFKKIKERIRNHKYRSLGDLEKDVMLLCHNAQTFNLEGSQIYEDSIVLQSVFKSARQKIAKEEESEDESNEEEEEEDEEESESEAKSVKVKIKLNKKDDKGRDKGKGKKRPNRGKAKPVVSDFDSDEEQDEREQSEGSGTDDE

On to `CS(=O)(=O)CC[C@@H](NC(=O)c1cnc(C(F)(F)F)nc1Oc1ccccc1)C1CC1`, for which the pIC50 in experiment [1] and in experiment [2] was 6.85 in each case.
On to `Cc1cccc(C)c1N(CC(=O)Nc1ccc(-c2ncon2)cc1)C(=O)C1CCS(=O)(=O)CC1`, for which the pIC50 in experiment [3] was 7.11.
On to `COC(=O)[C@H]1[C@@H](O)[C@@]2(O)c3c(OC)cc(O[C@@H]4O[C@@H]([C@H](O)CO)CO[C@H]4OC)cc3O[C@@]2(c2ccc(OC)cc2)[C@@H]1c1ccccc1` [SILVESTROL], for which the pIC50 in experiment [4] was 7.22.
As for `O=C(Nc1cc(C(F)F)ns1)Nc1cc(F)ncc1CO`, the pIC50 in experiment [5] is over 8.30.
On to `CC(/C=C/C(C)=C/[C@@H]1Cc2nc(cs2)CC[C@@H](N)CC(=O)O[C@@H](C)C/C(C)=C/C=C\C(=O)O1)=C\CN(C)C`, for which the pIC50 in experiment [4] was 9.00.
As for `CNCC[C@H](Oc1ccc(C(F)(F)F)cc1)c1ccccc1`, the pEC50 in experiment [6] is 5.30.
`CNCCC(Oc1ccc(C(F)(F)F)cc1)c1ccccc1` (centres undefined) [FLUOXETINE] gave a pEC50 in experiment [6] of about 5.30. Further, the pKd in experiment [7] was 5.02.

By pIC50 is commonly meant the negative decadic logarithm of the IC50, by convention in mol/L. The term pEC50 denotes the negative decadic logarithm of the EC50, by convention in mol/L. A higher pEC50 goes with a low EC50. By pKd is commonly meant −log10 of the Kd, conventionally taken in molar units.

Values taken from ChEMBL document CHEMBL6153124, “Structural Chemistry of Helicase Inhibition” (J Med Chem, 2025).
